From ChEMBL document CHEMBL3822436, “New polyhydroxylated flavon-3-ols and 3-hydroxy-2-styrylchromones: synthesis and ROS/RNS scavenging activities” (Eur J Med Chem, 2016)

How the values were obtained:
Assay type in all cases: physicochemical; call rule not given here
[1] = Antioxidant activity assessed as inhibition of nitric oxide-induced oxidation of DAF-2 to DAF-2T measured after 30 mins by fluorimetric analysis
[2] = Antioxidant activity assessed as inhibition of superoxide-induced NBT reduction at 100 uM measured during 2 mins by spectrophotometric analysis
[3] = Antioxidant activity assessed as inhibition of peroxynitrite-induced oxidation of DHR to rhodamine-123 measured after 2 mins by fluorimetric analysis
[4] = Antioxidant activity assessed as inhibition of HOCl-induced oxidation of non-fluorescent DHR to fluorescent rhodamine-123 by fluorescence-based assay
[5] = Antioxidant activity assessed as inhibition of singlet oxygen-induced oxidation of DHR to fluorescent rhodamine-123 measured after 30 mins by fluorescence microplate screening assay; conditions: for inhibition (INH): 0.5 h
[6] = Antioxidant activity assessed as inhibition of hydrogen peroxide-induced lucigenin oxidation at 1000 uM by chemiluminescence-based assay
[7] = Antioxidant activity assessed as inhibition of peroxynitrite-induced oxidation of DHR to rhodamine-123 measured after 2 mins in presence of NaHCO3 by fluorimetric analysis
[8] = Antioxidant activity assessed as inhibition of superoxide-induced NBT reduction measured during 2 mins by spectrophotometric analysis
[9] = Antioxidant activity assessed as inhibition of peroxynitrite-induced oxidation of DHR to rhodamine-123 at 5 uM measured after 2 mins in presence of NaHCO3 by fluorimetric analysis
[10] = Antioxidant activity assessed as inhibition of peroxyl radical-induced oxidation of fluorescein measured as trolox equivalent by ORAC assay

Structure (SMILES) | IC50 [1] | inhibition (INH) [2] | IC50 [3] | IC50 [4] | IC50 [5] | inhibition (INH) [5] | inhibition (INH) [6] | IC50 [7] | IC50 [8] | inhibition (INH) [9] | Activity [10]
COc1ccc2c(=O)c(O)c(/C=C/c3ccc(O)c(O)c3)oc2c1OC | 830 nM | 49% | 570 nM | 820 nM | 1200 nM | Dose-dependent effect | Not Active | 1300 nM | – | – | –
COc1ccc(-c2oc3c(O)c(O)ccc3c(=O)c2O)cc1OC | 55 nM | – | 710 nM | 6300 nM | 2400 nM | Dose-dependent effect | Not Active | 2500 nM | 21000 nM | – | –
O=c1c(O)c(/C=C/c2ccc(O)c(O)c2)oc2c(O)c(O)ccc12 | 670 nM | – | 290 nM | 1420 nM | 1000 nM | Dose-dependent effect | Not Active | 980 nM | 30000 nM | – | –
COc1ccc(/C=C/c2oc3c(O)c(O)ccc3c(=O)c2O)cc1OC | 1000 nM | – | 570 nM | 910 nM | 1000 nM | Dose-dependent effect | Not Active | – | 35000 nM | Not Active | –
O=c1c(O)c(-c2ccc(O)c(O)c2)oc2c(O)c(O)ccc12 | 120 nM | – | 910 nM | 2400 nM | 4200 nM | Dose-dependent effect | Not Active | 930 nM | 19000 nM | – | –
COc1ccc2c(=O)c(O)c(-c3ccc(O)c(O)c3)oc2c1OC | 58 nM | – | 590 nM | 3300 nM | 1300 nM | Dose-dependent effect | Not Active | 1030 nM | 58000 nM | – | –
O=c1c(O)c(-c2ccc(O)c(O)c2)oc2cc(O)cc(O)c12 [QUERCETIN] | – | – | 760 nM | 800 nM | – | – | Not Active | 1100 nM | 67000 nM | – | 0.49 uMequiv/uM
